ChEMBL document CHEMBL1150976, “The selectivity of protein kinase inhibitors: a further update” (Biochem J, 2007)

What was measured:
[1] = biological target: Serine/threonine-protein kinase PLK1 (Homo sapiens, UniProt P53350); assay: Percentage PLK1 activity remaining in the presence of 0.01uM inhibitor
[2] = biological target: Mitogen-activated protein kinase 14 (Homo sapiens, UniProt Q16539); assay: Percentage p38alpha activity remaining in the presence of 0.01uM inhibitor
[3] = biological target: Mitogen-activated protein kinase 10 (Homo sapiens) (UniProt P53779); assay: Percentage JNK3 activity remaining in the presence of 0.01uM inhibitor
Mitogen-activated protein kinase 10 (Homo sapiens), sequence (P53779 whole entry): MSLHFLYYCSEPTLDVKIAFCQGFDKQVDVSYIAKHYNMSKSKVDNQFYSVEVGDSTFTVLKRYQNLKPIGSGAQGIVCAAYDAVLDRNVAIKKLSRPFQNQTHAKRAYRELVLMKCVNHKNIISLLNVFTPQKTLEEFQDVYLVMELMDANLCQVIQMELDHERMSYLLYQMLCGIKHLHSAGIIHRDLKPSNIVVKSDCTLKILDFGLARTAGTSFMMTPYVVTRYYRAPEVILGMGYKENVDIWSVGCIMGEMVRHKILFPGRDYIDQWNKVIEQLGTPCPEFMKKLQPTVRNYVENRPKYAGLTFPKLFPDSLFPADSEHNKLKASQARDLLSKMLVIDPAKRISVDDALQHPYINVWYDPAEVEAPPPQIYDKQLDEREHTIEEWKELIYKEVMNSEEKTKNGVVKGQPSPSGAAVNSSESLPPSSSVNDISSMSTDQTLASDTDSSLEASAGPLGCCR

[4] = biological target: Calcium/calmodulin-dependent protein kinase type 1 (Homo sapiens) (UniProt Q14012); assay: Percentage CaMK1 activity remaining in the presence of 0.01uM inhibitor
[5] = biological target: Aurora kinase B (Homo sapiens, UniProt Q96GD4); assay: Percentage Aurora B activity remaining in the presence of 0.01uM inhibitor
Aurora kinase B, sequence (Q96GD4 whole entry): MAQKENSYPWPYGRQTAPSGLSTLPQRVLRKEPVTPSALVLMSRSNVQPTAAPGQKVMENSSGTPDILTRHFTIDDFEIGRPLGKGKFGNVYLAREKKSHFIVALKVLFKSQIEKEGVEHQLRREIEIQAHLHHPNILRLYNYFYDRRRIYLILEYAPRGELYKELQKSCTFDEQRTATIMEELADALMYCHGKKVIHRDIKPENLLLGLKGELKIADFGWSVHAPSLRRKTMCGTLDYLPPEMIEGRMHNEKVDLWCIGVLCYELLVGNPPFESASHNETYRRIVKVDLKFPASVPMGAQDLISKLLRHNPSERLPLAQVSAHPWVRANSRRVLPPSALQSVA

[6] = biological target: Dual specificity mitogen-activated protein kinase kinase 1 (Homo sapiens) (UniProt Q02750); assay: Percentage MKK1 activity remaining in the presence of 0.01uM inhibitor
Dual specificity mitogen-activated protein kinase kinase 1 (Homo sapiens), sequence (Q02750 whole entry): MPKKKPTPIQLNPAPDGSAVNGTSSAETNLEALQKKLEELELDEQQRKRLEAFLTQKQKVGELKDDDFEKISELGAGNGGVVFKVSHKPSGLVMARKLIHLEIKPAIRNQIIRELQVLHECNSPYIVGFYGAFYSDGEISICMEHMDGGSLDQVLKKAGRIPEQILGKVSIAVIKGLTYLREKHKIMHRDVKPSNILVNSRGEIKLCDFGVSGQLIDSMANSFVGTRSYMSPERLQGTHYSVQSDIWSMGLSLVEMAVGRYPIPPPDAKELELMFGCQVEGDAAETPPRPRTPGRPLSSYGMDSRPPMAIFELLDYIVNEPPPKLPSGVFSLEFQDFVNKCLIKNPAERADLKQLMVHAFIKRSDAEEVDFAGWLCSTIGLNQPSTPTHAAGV

[7] = biological target: Protein kinase C alpha type (Homo sapiens) (UniProt P17252); assay: Percentage PKCalpha activity remaining in the presence of 0.01uM inhibitor
[8] = biological target: Ribosomal protein S6 kinase beta-1 (Homo sapiens, UniProt P23443); assay: Percentage S6K1 activity remaining in the presence of 0.01uM inhibitor
[9] = biological target: T1, MAP kinase-activated protein kinase 5 (Homo sapiens) (UniProt Q8IW41); assay: Percentage PRAK activity remaining in the presence of 0.01uM inhibitor
T1 sequence (whole entry): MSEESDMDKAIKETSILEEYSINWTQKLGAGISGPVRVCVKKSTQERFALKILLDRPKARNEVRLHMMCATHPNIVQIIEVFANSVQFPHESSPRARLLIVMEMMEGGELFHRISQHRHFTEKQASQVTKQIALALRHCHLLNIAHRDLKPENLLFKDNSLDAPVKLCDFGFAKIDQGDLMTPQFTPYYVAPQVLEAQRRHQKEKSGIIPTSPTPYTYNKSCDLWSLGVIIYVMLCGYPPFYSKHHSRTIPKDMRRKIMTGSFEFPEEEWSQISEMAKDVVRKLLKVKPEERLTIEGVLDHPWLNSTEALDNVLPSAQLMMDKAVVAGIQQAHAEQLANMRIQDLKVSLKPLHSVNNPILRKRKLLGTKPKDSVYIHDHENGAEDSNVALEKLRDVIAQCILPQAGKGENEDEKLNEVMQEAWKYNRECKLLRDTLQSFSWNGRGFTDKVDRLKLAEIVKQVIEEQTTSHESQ

[10] = biological target: Serine/threonine-protein kinase pim-1 (Homo sapiens, UniProt P11309); assay: Percentage PIM1 activity remaining in the presence of 0.01uM inhibitor
Serine/threonine-protein kinase pim-1, sequence (P11309 whole entry, looked up): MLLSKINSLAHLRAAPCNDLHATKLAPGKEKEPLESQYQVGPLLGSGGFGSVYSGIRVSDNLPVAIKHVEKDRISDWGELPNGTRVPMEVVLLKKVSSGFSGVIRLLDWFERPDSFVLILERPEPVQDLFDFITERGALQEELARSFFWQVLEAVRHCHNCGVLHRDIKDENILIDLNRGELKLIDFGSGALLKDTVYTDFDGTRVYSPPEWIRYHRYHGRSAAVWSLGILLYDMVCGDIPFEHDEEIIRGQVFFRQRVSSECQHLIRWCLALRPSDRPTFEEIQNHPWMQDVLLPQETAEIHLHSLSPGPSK

[11] = biological target: Tyrosine-protein kinase CSK (Homo sapiens, UniProt P41240); assay: Percentage CSK activity remaining in the presence of 0.01uM inhibitor
Tyrosine-protein kinase CSK, sequence (P41240 2-450 limits assumed): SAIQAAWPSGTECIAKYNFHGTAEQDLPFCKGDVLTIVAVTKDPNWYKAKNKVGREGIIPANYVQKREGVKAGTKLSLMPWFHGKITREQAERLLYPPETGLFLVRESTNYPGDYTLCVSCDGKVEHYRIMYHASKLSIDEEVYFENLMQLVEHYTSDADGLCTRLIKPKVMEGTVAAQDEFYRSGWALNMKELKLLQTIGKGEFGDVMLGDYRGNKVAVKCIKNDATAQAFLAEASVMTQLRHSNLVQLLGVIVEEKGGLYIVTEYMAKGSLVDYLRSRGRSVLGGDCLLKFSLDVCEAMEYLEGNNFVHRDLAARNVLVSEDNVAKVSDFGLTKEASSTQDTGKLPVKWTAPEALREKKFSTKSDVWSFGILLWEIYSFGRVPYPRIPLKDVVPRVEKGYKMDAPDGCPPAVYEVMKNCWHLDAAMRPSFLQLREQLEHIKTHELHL

[12] = biological target: Homeodomain-interacting protein kinase 2 (Homo sapiens) (UniProt Q9H2X6); assay: Percentage HIPK2 activity remaining in the presence of 0.01uM inhibitor
Homeodomain-interacting protein kinase 2 (Homo sapiens), sequence (Q9H2X6 whole entry, looked up): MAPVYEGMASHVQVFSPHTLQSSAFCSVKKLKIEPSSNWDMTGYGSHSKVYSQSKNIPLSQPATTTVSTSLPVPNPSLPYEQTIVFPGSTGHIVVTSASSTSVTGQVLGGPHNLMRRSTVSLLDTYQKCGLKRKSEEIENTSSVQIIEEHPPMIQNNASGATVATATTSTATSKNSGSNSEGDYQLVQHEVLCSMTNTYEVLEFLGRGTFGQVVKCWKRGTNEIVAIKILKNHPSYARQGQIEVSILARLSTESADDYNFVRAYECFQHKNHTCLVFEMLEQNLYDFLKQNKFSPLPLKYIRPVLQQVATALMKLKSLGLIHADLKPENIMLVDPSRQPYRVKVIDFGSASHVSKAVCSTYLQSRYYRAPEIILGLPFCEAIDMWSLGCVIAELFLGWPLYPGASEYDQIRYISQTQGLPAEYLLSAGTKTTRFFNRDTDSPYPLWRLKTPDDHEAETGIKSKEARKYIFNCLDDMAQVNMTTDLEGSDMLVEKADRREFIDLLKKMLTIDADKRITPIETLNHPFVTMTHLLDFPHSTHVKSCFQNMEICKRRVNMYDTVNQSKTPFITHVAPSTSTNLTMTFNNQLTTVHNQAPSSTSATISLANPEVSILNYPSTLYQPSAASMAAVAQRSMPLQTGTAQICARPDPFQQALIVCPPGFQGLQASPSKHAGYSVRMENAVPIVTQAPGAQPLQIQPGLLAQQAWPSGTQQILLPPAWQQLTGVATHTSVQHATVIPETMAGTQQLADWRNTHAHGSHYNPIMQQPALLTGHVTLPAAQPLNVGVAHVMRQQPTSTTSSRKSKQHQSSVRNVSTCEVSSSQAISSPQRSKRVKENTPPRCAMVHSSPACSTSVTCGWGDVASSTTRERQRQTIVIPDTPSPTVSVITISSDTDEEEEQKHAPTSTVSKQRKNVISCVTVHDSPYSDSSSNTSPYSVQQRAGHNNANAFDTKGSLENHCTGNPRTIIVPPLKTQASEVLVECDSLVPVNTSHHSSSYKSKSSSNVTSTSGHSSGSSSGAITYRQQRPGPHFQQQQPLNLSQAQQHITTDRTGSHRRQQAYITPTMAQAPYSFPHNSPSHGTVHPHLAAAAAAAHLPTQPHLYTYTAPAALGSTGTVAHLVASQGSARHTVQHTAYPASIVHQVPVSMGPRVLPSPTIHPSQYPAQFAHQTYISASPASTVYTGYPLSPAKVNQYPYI

[13] = biological target: T2, Eukaryotic elongation factor 2 kinase (Homo sapiens) (UniProt O00418); assay: Percentage EF2K activity remaining in the presence of 0.01uM inhibitor
T2 sequence (whole entry): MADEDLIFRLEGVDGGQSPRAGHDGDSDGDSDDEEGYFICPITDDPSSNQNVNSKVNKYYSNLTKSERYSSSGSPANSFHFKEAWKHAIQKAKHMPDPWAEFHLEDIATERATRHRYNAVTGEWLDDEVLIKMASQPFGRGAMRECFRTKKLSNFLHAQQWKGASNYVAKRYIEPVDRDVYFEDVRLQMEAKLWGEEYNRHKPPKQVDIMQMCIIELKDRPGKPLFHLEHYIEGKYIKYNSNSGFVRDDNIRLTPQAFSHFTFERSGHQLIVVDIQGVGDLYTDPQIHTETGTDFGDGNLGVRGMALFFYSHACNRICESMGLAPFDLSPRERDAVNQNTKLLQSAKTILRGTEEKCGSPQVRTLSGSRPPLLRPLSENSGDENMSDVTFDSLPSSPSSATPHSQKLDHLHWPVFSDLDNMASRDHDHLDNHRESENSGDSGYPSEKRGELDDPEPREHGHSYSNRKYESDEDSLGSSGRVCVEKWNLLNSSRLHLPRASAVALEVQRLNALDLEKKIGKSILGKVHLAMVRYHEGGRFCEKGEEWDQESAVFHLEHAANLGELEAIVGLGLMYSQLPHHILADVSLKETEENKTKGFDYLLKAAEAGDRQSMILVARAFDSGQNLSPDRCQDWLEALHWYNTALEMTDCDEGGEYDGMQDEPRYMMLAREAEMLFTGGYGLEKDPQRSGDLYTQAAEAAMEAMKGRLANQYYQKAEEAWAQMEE

[14] = biological target: Ribosomal protein S6 kinase alpha-5 (Homo sapiens) (UniProt O75582); assay: Percentage MSK1 activity remaining in the presence of 0.01uM inhibitor
[15] = biological target: Dual specificity tyrosine-phosphorylation-regulated kinase 1A (Homo sapiens) (UniProt Q13627); assay: Percentage DYRK1A activity remaining in the presence of 0.01uM inhibitor
[16] = biological target: T3, Serine/threonine-protein kinase 3 (Homo sapiens) (UniProt Q13188); assay: Percentage MST2 activity remaining in the presence of 0.01uM inhibitor
T3 sequence (whole entry): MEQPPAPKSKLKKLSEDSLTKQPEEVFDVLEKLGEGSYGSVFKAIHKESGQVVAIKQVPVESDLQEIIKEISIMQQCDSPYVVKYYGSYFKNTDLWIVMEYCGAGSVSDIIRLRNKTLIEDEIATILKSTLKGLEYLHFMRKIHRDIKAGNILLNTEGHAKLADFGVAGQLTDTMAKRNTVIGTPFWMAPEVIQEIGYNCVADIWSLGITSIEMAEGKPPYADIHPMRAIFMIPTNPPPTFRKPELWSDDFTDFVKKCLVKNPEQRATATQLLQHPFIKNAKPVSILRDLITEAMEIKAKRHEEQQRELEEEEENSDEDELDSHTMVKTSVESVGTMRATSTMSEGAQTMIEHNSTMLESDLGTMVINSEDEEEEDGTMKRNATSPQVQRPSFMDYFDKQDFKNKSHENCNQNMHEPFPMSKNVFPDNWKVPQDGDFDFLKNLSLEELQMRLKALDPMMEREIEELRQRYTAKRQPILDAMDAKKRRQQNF

[17] = species: Homo sapiens; assay: Percentage PHK activity remaining in the presence of 0.01uM inhibitor
[18] = biological target: Proto-oncogene tyrosine-protein kinase Src (Gallus gallus) (UniProt P00523); assay: Percentage Src activity remaining in the presence of 0.01uM inhibitor
[19] = biological target: Calcium/calmodulin-dependent protein kinase kinase 1 (Homo sapiens) (UniProt Q8N5S9); assay: Percentage CaMKKalpha activity remaining in the presence of 0.01uM inhibitor
[20] = biological target: Rho-associated protein kinase 2 (Homo sapiens) (UniProt O75116); assay: Percentage ROCK2 activity remaining in the presence of 0.01uM inhibitor
[21] = biological target: Mitogen-activated protein kinase 8 (Homo sapiens, UniProt P45983); assay: Percentage JNK1 activity remaining in the presence of 0.01uM inhibitor

Mitogen-activated protein kinase 14, sequence (Q16539 whole entry): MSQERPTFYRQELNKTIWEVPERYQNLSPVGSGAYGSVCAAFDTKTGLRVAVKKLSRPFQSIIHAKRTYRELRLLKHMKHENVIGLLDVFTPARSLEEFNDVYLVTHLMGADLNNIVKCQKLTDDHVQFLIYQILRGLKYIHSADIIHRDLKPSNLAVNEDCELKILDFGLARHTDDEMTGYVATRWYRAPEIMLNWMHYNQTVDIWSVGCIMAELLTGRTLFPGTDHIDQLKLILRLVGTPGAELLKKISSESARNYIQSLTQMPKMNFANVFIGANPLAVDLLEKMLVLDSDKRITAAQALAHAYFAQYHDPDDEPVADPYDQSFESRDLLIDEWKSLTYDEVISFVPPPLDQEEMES
Serine/threonine-protein kinase PLK1, sequence (P53350 whole entry): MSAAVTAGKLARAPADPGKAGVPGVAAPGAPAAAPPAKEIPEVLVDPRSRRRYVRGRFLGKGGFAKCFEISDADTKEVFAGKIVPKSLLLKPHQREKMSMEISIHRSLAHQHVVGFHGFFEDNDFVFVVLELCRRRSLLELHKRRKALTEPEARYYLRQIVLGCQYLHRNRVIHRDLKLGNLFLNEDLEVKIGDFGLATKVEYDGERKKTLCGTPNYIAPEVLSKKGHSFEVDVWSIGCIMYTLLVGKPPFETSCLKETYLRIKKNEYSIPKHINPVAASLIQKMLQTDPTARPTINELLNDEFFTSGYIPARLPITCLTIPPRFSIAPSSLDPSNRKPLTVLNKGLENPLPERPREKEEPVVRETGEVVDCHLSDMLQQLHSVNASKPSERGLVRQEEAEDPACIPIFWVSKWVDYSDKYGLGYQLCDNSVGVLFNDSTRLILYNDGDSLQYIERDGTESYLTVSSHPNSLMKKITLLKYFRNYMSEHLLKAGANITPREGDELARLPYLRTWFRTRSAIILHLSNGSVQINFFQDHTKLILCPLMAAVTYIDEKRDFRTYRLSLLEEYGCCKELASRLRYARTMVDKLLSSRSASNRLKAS

| SMILES | Activity [1] [%] | Activity [2] [%] | Activity [3] [%] | Activity [4] [%] | Activity [6] [%] | Activity [7] [%] | Activity [8] [%] | Activity [9] [%] | Activity [10] [%] | Activity [11] [%] | Activity [12] [%] | Activity [13] [%] | Activity [14] [%] | Activity [15] [%] | Activity [16] [%] | Activity [17] [%] | Activity [18] [%] | Activity [19] [%] | Activity [20] [%] | Activity [21] [%] | other results |
| --- | --- | --- | --- | --- | --- | --- | --- | --- | --- | --- | --- | --- | --- | --- | --- | --- | --- | --- | --- | --- | --- |
| O=C(NCCCNc1nc(Nc2cccc(NC(=O)N3CCCC3)c2)ncc1I)c1cccs1 | 95 | 86 | 93 | 86 | 50 | 105 | 100 | 97 | 103 | 114 | 95 | 98 | 88 | 94 | 96 | 94 | 90 | 86 | 90 | 104 | Activity ([5]; filed as antagonist): 17% |
| CN[C@@H]1C[C@H]2O[C@@](C)([C@@H]1OC)n1c3ccccc3c3c4c(c5c6ccccc6n2c5c31)C(=O)N[C@H]4O (stereo in doubt) | 76 | 105 | 107 | 86 | 75 | – | 96 | 83 | 52 | 80 | 109 | 105 | 68 | 90 | – | – | 76 | 58 | 86 | 79 | Activity [5]: 59%; Activity ([7]; filed as antagonist): 6%; Activity ([16]; filed as antagonist): 2%; Activity ([17]; filed as antagonist): 5% |
| Cc1n[nH]c2ccc(-c3cncc(OC[C@@H](N)Cc4c[nH]c5ccccc45)c3)cc12 | 89 | 131 | 81 | 89 | 84 | 73 | 88 | 107 | 57 | 99 | 73 | 93 | – | – | 76 | 86 | 91 | 112 | – | 89 | Activity [5]: 81%; Activity ([14]; filed as antagonist): 19%; Activity ([15]; filed as antagonist): 10%; Activity ([20]; filed as antagonist): 48% |
